# Values quoted from earlier work in article PMC9851200, “Multiparameter phenotypic screening for endogenous TFEB and TFE3 translocation identifies novel chemical series modulating lysosome function” (Autophagy, 2022).
# Legend:
# Set-up in all cases: method as in original PKIS2 published data
# [1] = molecular target: T1, kinases (KINOMEscan panel) (Homo sapiens, UniProt Q9UQB9); conditions: AURKC; Published KINOMEscan; ref original PKIS2 published data; cited from earlier work
# T1 sequence (Q9UQB9 1-309): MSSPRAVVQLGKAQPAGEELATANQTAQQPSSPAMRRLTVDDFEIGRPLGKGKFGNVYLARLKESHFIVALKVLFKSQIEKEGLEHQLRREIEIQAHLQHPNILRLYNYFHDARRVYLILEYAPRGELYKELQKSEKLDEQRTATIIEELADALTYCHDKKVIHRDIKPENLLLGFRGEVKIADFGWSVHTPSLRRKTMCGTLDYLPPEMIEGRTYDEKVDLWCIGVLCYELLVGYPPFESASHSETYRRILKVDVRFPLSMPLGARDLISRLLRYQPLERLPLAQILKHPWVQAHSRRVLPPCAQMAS
# [2] = molecular target: T2, kinases (KINOMEscan panel) (Homo sapiens, UniProt Q8WXR4); conditions: MYO3B; Published KINOMEscan; ref original PKIS2 published data; cited from earlier work
# T2 sequence (Q8WXR4 1-1341): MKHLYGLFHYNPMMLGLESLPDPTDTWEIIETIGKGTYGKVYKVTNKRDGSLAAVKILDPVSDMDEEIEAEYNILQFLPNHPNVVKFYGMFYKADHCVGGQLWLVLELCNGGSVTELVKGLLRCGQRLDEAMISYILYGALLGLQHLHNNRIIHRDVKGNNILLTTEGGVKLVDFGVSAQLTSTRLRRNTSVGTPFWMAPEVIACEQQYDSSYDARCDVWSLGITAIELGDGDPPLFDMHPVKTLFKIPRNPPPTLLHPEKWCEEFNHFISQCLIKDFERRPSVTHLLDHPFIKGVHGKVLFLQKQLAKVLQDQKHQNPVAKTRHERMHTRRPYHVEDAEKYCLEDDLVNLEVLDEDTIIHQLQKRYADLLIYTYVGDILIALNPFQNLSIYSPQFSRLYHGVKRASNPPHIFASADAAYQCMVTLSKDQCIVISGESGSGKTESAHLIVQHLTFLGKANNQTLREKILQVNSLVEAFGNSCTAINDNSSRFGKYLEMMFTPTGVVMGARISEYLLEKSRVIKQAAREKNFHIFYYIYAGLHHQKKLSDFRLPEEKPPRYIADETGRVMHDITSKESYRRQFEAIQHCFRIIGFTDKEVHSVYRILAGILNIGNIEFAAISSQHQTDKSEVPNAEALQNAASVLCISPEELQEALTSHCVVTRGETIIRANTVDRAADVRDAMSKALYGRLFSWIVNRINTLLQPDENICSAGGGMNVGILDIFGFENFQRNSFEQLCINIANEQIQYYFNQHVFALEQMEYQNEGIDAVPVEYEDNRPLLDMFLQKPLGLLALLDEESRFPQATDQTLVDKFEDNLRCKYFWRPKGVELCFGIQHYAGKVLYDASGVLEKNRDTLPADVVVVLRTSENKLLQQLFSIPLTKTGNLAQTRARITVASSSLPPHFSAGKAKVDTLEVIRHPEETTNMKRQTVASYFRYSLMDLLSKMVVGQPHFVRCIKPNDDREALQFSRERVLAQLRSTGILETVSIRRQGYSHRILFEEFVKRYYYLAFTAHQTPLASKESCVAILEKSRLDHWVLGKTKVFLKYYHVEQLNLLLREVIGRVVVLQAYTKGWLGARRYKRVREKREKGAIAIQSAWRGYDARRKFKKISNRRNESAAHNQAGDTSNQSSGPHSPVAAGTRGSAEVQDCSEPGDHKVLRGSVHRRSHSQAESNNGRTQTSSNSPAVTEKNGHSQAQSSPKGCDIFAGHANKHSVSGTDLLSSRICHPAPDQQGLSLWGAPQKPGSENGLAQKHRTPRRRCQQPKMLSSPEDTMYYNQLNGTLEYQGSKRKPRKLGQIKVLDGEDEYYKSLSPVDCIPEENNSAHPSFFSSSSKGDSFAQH
# [3] = molecular target: kinases (KINOMEscan panel) (Homo sapiens, UniProt P29376); conditions: LTK; Published KINOMEscan; ref original PKIS2 published data; cited from earlier work
# [4] = molecular target: kinases (KINOMEscan panel) (Homo sapiens, UniProt O95819); conditions: MAP4K4; Published KINOMEscan; ref original PKIS2 published data; cited from earlier work
# [5] = molecular target: kinases (KINOMEscan panel) (Homo sapiens, UniProt P41240); conditions: kinase CSK; Published KINOMEscan; ref original PKIS2 published data; cited from earlier work
# [6] = molecular target: kinases (KINOMEscan panel) (Homo sapiens, UniProt Q9BVS4); conditions: RIOK2; Published KINOMEscan; ref original PKIS2 published data; cited from earlier work
# [7] = molecular target: kinases (KINOMEscan panel) (Homo sapiens, UniProt Q06187); conditions: kinase BTK; Published KINOMEscan; ref original PKIS2 published data; cited from earlier work
# [8] = molecular target: kinases (KINOMEscan panel) (Homo sapiens, UniProt P32298); conditions: kinase GRK4; Published KINOMEscan; ref original PKIS2 published data; cited from earlier work
# kinases (KINOMEscan panel) (Homo sapiens, UniProt P32298), sequence (P32298 whole entry): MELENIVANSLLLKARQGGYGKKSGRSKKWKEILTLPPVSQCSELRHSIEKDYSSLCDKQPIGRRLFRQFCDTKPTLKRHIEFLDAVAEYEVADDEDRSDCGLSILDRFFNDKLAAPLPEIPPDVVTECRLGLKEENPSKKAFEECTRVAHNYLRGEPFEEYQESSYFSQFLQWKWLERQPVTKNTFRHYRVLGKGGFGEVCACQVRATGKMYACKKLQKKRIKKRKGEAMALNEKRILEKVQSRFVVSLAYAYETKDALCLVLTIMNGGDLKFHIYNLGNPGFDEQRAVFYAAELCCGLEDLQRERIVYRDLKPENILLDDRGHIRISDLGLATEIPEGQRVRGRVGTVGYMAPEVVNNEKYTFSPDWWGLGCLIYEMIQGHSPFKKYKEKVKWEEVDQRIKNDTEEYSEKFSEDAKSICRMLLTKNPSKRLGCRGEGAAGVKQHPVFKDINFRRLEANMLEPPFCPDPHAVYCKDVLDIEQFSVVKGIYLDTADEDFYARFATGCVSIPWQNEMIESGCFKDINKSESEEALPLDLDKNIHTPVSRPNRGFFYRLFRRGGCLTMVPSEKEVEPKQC
# kinases (KINOMEscan panel) (Homo sapiens, UniProt Q06187), sequence (Q06187 whole entry): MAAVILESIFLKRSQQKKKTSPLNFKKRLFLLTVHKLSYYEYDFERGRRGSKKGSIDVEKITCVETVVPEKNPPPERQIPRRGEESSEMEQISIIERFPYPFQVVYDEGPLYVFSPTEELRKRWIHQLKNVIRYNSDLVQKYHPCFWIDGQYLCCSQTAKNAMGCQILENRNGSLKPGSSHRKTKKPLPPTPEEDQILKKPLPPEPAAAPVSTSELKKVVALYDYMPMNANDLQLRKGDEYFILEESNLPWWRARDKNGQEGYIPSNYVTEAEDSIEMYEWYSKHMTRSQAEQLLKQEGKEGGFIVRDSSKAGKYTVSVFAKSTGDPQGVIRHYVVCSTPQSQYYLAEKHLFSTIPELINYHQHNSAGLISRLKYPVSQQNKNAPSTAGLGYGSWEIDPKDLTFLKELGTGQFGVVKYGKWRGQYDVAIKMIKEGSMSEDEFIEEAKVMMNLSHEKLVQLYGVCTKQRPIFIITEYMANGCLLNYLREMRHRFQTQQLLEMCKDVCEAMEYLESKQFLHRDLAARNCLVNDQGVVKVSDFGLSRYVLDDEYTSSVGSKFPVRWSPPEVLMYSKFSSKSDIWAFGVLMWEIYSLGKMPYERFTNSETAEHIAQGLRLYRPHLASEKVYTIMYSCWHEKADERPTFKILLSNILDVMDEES
# kinases (KINOMEscan panel) (Homo sapiens, UniProt O95819), sequence (O95819 whole entry): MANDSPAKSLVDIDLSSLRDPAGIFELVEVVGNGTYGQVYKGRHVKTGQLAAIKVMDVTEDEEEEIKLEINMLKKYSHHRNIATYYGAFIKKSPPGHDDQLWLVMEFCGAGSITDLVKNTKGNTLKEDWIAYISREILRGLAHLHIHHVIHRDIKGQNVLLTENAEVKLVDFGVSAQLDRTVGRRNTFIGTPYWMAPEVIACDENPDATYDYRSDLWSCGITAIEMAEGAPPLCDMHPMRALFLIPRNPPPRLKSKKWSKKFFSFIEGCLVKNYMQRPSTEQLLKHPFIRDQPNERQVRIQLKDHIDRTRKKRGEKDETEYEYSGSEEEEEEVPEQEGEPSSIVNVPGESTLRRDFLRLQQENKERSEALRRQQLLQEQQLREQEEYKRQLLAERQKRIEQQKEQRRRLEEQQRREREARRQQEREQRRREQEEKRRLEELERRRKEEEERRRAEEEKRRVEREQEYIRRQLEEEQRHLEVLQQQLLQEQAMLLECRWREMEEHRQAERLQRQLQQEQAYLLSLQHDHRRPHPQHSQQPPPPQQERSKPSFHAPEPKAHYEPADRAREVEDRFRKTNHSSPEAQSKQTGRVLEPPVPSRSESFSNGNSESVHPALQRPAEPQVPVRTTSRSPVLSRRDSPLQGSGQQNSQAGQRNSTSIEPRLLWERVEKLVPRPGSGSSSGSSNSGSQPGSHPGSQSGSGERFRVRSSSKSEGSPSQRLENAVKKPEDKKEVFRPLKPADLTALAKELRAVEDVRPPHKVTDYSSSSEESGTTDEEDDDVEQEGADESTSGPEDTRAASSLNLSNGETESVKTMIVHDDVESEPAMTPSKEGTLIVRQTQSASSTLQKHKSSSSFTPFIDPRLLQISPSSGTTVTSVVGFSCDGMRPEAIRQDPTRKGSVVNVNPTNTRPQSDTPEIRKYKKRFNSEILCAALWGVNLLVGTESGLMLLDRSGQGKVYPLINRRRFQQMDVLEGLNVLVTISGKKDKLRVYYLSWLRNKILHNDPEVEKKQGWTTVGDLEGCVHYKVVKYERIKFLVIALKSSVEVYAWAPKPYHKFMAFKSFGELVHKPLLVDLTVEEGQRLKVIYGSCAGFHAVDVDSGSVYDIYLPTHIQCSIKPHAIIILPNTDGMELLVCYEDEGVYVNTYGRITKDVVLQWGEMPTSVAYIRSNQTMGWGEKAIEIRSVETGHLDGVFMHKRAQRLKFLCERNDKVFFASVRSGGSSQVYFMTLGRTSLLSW
# kinases (KINOMEscan panel) (Homo sapiens, UniProt Q9BVS4), sequence (Q9BVS4 whole entry): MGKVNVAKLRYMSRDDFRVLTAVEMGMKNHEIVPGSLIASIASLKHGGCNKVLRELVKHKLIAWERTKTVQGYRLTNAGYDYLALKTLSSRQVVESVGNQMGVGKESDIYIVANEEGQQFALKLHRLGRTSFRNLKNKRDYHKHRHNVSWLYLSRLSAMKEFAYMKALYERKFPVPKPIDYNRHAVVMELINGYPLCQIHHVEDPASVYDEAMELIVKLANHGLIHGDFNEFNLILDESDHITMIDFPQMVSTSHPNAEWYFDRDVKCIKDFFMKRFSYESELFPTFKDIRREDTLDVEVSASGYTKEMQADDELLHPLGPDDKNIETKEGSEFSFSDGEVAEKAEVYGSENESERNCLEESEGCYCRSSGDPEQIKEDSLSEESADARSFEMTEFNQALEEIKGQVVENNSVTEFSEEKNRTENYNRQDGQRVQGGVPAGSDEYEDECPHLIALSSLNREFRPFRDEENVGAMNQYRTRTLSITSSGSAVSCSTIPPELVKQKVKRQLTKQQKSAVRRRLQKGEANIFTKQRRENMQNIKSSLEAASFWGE
# kinases (KINOMEscan panel) (Homo sapiens, UniProt P41240), sequence (P41240 whole entry): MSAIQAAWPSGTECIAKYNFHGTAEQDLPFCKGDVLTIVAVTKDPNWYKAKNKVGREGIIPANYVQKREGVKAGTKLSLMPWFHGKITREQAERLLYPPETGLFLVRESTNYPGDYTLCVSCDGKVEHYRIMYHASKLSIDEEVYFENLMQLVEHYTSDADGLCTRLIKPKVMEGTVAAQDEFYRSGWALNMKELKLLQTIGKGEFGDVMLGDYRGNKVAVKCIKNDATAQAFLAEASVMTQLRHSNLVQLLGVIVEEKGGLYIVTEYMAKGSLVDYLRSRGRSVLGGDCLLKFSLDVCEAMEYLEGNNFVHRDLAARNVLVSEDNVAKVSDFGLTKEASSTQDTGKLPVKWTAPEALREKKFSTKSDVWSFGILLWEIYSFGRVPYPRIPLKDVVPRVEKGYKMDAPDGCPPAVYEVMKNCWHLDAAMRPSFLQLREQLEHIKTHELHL
# kinases (KINOMEscan panel) (Homo sapiens, UniProt P29376), sequence (P29376 17-864): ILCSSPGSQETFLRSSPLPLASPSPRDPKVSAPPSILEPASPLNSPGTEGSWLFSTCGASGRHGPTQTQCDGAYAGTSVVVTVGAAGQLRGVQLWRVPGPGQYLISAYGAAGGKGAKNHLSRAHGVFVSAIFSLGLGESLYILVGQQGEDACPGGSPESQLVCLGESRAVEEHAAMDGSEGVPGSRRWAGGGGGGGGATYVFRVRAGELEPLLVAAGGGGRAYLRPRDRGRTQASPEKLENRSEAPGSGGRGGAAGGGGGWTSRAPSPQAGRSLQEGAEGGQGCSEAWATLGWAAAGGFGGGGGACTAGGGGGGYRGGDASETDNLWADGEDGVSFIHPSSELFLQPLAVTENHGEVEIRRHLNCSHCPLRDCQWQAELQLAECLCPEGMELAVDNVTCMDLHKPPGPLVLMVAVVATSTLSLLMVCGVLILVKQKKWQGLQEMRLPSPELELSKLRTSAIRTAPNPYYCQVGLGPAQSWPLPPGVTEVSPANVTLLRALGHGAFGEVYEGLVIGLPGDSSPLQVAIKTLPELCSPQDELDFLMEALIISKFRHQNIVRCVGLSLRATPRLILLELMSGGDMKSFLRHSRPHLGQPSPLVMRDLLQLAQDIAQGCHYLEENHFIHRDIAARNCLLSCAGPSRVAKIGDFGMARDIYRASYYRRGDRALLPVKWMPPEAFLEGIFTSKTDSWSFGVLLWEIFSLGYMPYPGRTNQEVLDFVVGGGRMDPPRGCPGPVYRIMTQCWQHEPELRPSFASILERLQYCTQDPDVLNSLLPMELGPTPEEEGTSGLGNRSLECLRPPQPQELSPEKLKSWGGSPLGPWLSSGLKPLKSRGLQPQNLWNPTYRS
smiles,measurement,setting,value
Cc1cccc(-c2nc(Nc3ccncc3)c3ccccc3n2)n1 [NK215],KINOMEscan AURKC,[1],0
same,KINOMEscan MYO3B,[2],17
same,KINOMEscan LTK,[3],21
same,KINOMEscan MAP4K4,[4],0
same,KINOMEscan CSK,[5],4
same,KINOMEscan RIOK2,[6],0
same,KINOMEscan BTK,[7],0
same,KINOMEscan GRK4,[8],0
